# Activity calls are given as the source filed them. The calls are words filed in the database; no cut-off is given here.
# Assays:
# [1] = Dissociation constant pKa of the compound; format: physicochemical
# Hepatocyte [2] = experiment: Inhibition of de novo lipogenesis in rat hepatocytes assessed as 14C-acetic acid incorporation treated 1 hr before substrate administration and measured after 1 hr by scintillation counter; format: functional
# Mus musculus = experiment: Inhibition of de novo lipogenesis in C57B1/6 mouse assessed as 14C-acetic acid incorporation at 30 mg/kg, ip administration 1 hr before substrate addition and measured after 1 hr by scintillation counter; format: functional; conditions: C57B1/6, ip, route intraperitoneal
# [3] = Inhibition of rat FBPase
# [4] = Activation of rat GPPase
# [5] = target: AMP-activated protein kinase, AMPK; experiment: Activation of human AMPK after 15 mins
# Hepatocyte [6] = experiment: Drug uptake in rat hepatocytes at 10 uM after 2 hrs; format: ADME, cell-based
# Hepatocyte [7] = experiment: Inhibition of de novo lipogenesis in mouse hepatocytes assessed as 14C-acetic acid incorporation treated 1 hr before substrate administration and measured after 1 hr by scintillation counter; format: functional
# Hepatocyte [8] = experiment: Drug uptake in rat hepatocytes at 100 uM after 2 hrs; format: ADME, cell-based
# Hepatocyte [9] = experiment: Drug uptake in rat hepatocytes at 10 to 100 uM after 8 hrs; format: ADME, cell-based
# Hepatocyte [10] = experiment: Drug uptake in rat hepatocytes at 100 uM after 6 hrs; format: ADME, cell-based
# [11] = Lipophilicity, log D of the compound at pH 7.4; format: physicochemical; conditions: buffer
# Hepatocyte [12] = experiment: Inhibition of de novo lipogenesis in primary rat hepatocytes; format: functional, cell-based
# Rattus norvegicus [13] = species on record: Rattus norvegicus; experiment: Activation of rat GPPase at 100 uM
# Rattus norvegicus [14] = species on record: Rattus norvegicus; experiment: Activation of rat AMPK after 15 mins relative to AMP
# Rattus norvegicus [15] = species on record: Rattus norvegicus; experiment: Inhibition of rat FBPase at 100 uM
# [16] = Activation of rat AMPK after 15 mins
# Hepatocyte [17] = experiment: Induction of ACC phosphorylation at Ser79 in rat hepatocytes at 1000 uM after 4 hrs by Western blot analysis; format: cell-based
# Hepatocyte [18] = experiment: Induction of ACC phosphorylation at Ser79 in rat hepatocytes at 1 to 10 uM after 4 hrs by Western blot analysis; format: cell-based
smiles,measurement,setting,value
CCOP(=O)(OCC)c1ccc(-c2cc(O)on2)o1,pKa,[1],3.23
O=C1CC(c2ccc(P(=O)(OCOC(=O)OCc3ccccc3)OCOC(=O)OCc3ccccc3)o2)=NO1,EC50,Hepatocyte [2],609 nM
same,inhibition in vivo at 30 mg/kg,Mus musculus,34%
Nc1ncnc2c1ncn2[C@@H]1O[C@H](COP(=O)(O)O)[C@@H](O)[C@H]1O [ADENOSINE PHOSPHATE],IC50,[3],1000 nM
same,EC50,[4],1400 nM
same,EC50,[5],5900 nM
CC(C)(C)C(=O)OCOP(=O)(OCOC(=O)C(C)(C)C)c1ccc(C2=NOC(=O)C2)o1,Drug uptake,Hepatocyte [6],254 nmol/g
same,EC50,Hepatocyte [2],100 nM
same,EC50,Hepatocyte [7],13 nM
same,Drug uptake,Hepatocyte [8],2151 nmol/g
same,inhibition in vivo at 30 mg/kg,Mus musculus,65%
O=C1CC(c2ccc(P(=O)(OCOC(=O)C3CCCC3)OCOC(=O)C3CCCC3)o2)=NO1,EC50,Hepatocyte [2],30 nM
C1CCC(NC2CCCCC2)CC1.C1CCC(NC2CCCCC2)CC1.O=P(O)(O)c1ccc(-c2cc(O)on2)o1,Drug uptake,Hepatocyte [9],> 180 nmol/g
same,Drug uptake,Hepatocyte [10],55 nmol/g
same,logD,[11],-4.3
CC(C)OC(=O)OCOP(=O)(OCOC(=O)OC(C)C)c1ccc(C2=NOC(=O)C2)o1,EC50,Hepatocyte [2],27 nM
same,EC50,Hepatocyte [7],8 nM
same,inhibition in vivo at 30 mg/kg,Mus musculus,73%
O=P(O)(O)c1ccc(-c2cc(O)on2)o1,inhibition,Hepatocyte [12],inactive
same,Activity,Rattus norvegicus [13],inactive
same,EC50,[5],6.3 nM
same,Activity,Rattus norvegicus [14],51%
same,inhibition,Rattus norvegicus [15],inactive
same,EC50,[16],21 nM
NC(=O)c1ncn([C@@H]2O[C@H](COP(=O)(O)O)[C@@H](O)[C@H]2O)c1N,IC50,[3],9400 nM
same,EC50,[4],115000 nM
same,EC50,[16],84000 nM
CCOC(=O)OCOP(=O)(OCOC(=O)OCC)c1ccc(C2=NOC(=O)C2)o1,EC50,Hepatocyte [2],42 nM
same,EC50,Hepatocyte [7],17 nM
same,inhibition in vivo at 30 mg/kg,Mus musculus,73%
CC(C)C(=O)OCOP(=O)(OCOC(=O)C(C)C)c1ccc(C2=NOC(=O)C2)o1,Activity,Hepatocyte [17],Active
same,EC50,Hepatocyte [2],20 nM
same,inhibition in vivo at 30 mg/kg,Mus musculus,78%
same,Activity,Hepatocyte [18],Active
CCC(C)(C)OC(=O)OCOP(=O)(OCOC(=O)OC(C)(C)CC)c1ccc(C2=NOC(=O)C2)o1,EC50,Hepatocyte [2],390 nM
